The values that follow come from patent US4668669A, “Pristinamycin IIB derivatives and compositions containing them” (Rhone-Poulenc Sante, priority 1985, dated 1987).

Starred links: 1 amine or outer side, 2 acyl side, 3 side chain; linkers in the order of their positions; H or OH if unused. Positions of bridges follow the written chain, without caps; N, C: chain ends. Non-standard residues stand in square brackets, D forms with d. Residues, ends and D or L forms follow the SMILES beside them. ξ: configuration not given here. *: point of attachment. X6 = CC(CN1CCN(C)CC1)SC=C1CN([*:1])C(C(=O)[*:2])CC1=O; X4 = CN(C)CC(CN(C)C)SCC1CN([*:1])C(C(=O)[*:2])CC1=O; X5 = CN1CCN(CCCSCC2CN([*:1])C(C(=O)[*:2])CC2=O)CC1; X2 = CN1CCC(SCC2CN([*:1])C(C(=O)[*:2])CC2=O)CC1; ξNMePhe(4-NMe2) = CNC(Cc1ccc(N(C)C)cc1)C(=O)O; X1 = CN(C)CCOC=C1CN([*:1])C(C(=O)[*:2])CC1=O; X3 = CN(C)CCNC=C1CN([*:1])C(C(=O)[*:2])CC1=O; X7 = CN(C)CCCSCC1CN([*:1])C(C(=O)[*:2])CC1=O; Picolinoyl(3-OH) = O=C(c1ncccc1O)*; NMeF = CN[CH](Cc1ccccc1)C(=O)O; Phg = N[CH](C(=O)O)c1ccccc1; Abu = CC[CH](N)C(=O)O

The nature of one data set: Solubility in water (aqueous solution obtained). Conditions: distilled water, no hydrochloride stated. The data set is classed as physicochemical.
With `CCC1NC(=O)C(NC(=O)c2ncccc2O)C(C)OC(=O)C(c2ccccc2)NC(=O)C2CC(=O)C(=CNCCN(C)C)CN2C(=O)C(Cc2ccc(N(C)C)cc2)N(C)C(=O)C2CCCN2C1=O` (centres unmarked) [product AG, 5δ-(2-dimethylaminoethyl)aminomethylenepristinamycin IA] ({Picolinoyl(3-OH)}-T[Abu]P[ξNMePhe(4-NMe2)][X3][Phg]; ester 1-C; configuration not given here), the “Solubility: concentration of aqueous solution” value amounted to 1%.

“5γ-[N-(carboxymethyl)methylamino]-5γ-deoxypristinamycin IA [product K]”: the “Solubility: concentration of aqueous solution” value was 2%.

The next data set is described as follows: Solubility in water (aqueous solution obtained). The data set is classed as physicochemical. Conditions: hydrochloride / dissolved with aqueous hydrochloric acid and distilled water. An excerpt:
In the examples described below, unless stated otherwise, all the products can be dissolved at a strength of at least 2%, in the form of hydrochloride.
In the case of “5γ-deoxy-5γ-[N-(3-dimethylaminopropyl)acetamido]pristinamycin IA [product M]”, the “Solubility: concentration of aqueous solution, in the form of hydrochloride” value (“Solubility: concentration … of hydrochloride” below) came to 10%.

As to `CCC1NC(=O)C(NC(=O)c2ncccc2O)C(C)OC(=O)C(c2ccccc2)NC(=O)C2CC(=O)C(CSC3CCN(C)CC3)CN2C(=O)C(Cc2ccc(N(C)C)cc2)N(C)C(=O)C2CCCN2C1=O` (centres unmarked) [product AF, 5δ-(1-methyl-4-piperidyl)thiomethylpristinamycin IA] ({Picolinoyl(3-OH)}-T[Abu]P[ξNMePhe(4-NMe2)][X2][Phg]; ester 1-C; configuration not given here), the “Solubility: concentration … of hydrochloride” value turned out to be 5%.

In the case of `CCC1NC(=O)C(NC(=O)c2ncccc2O)C(C)OC(=O)C(c2ccccc2)NC(=O)C2CC(=O)C(=CSC(C)CN3CCN(C)CC3)CN2C(=O)C(Cc2ccc(N(C)C)cc2)N(C)C(=O)C2CCCN2C1=O` (centres unmarked) [product AAN, 5δ-[3-(4-methyl-1-piperazinyl)-2-propyl]thiomethylenepristinamycin IA] ({Picolinoyl(3-OH)}-T[Abu]P[ξNMePhe(4-NMe2)][X6][Phg]; ester 1-C; configuration not given here), the “Solubility: concentration … of hydrochloride” value was 10%.

With “26-(2-Diisopropylaminoethyl)sulphonylpristinamycin IIB [Example 25]”, the “Solubility: concentration … of hydrochloride” value is reported as 5%.

For the compound “5γ-deoxy-5γ-(4-diethylamino-2-methylbutyl)aminopristinamycin IA [product F]”, the “Solubility: concentration … of hydrochloride” value came out at 10%.

Regarding “5δ-(2-dimethylaminoethyl)thiomethylenepristinamycin IA [product AX]”, the “Solubility: concentration … of hydrochloride” value is given as 1%.

In the case of “5γ-deoxy-5γ-dimethylaminopristinamycin IA [product B]”, the “Solubility: concentration … of hydrochloride” value came to 2%.

Consider `CC1=CC(O)CC(=O)Cc2nc(co2)C(=O)N2CCC([S+]([O-])CCCN(C)C)C2C(=O)OC(C(C)C)C(C)C=CC(=O)NCC=C1` (centres unmarked) [Example 6, 26-(3-dimethylaminopropyl)sulphinylpristinamycin IIB], for which the “Solubility: concentration … of hydrochloride” value was determined as 2%.

As for `CCN(C)CC[S+]([O-])C1CCN2C(=O)c3coc(n3)CC(=O)CC(O)C=C(C)C=CCNC(=O)C=CC(C)C(C(C)C)OC(=O)C12` (centres unmarked) [Example 5, 2-(N-methyl-N-ethyl-2-aminoethyl)sulphinylpristinamycin IIB], the “Solubility: concentration … of hydrochloride” value is given as 10%.

In the case of “5δ-(3-dimethylamino-2-propyl)thiomethylenepristinamycin IA [Reference Example 57]”, the “Solubility: concentration … of hydrochloride” value was determined as 5%.

Take “5δ-(5-diethylamino-2-pentyl)thiomethylenepristinamycin IA [Reference Example 58]”: the “Solubility: concentration … of hydrochloride” value worked out at 10%.

For the compound “5γ-Deoxy-5γ-(2-dimethylaminoethyl)aminopristinamycin IA [compound 2]”, the “Solubility: concentration … of hydrochloride” value is recorded as 10%.

Take “5δ-(1-methyl-4-piperidyl)aminomethylenepristinamycin IA [product AT]”: the “Solubility: concentration … of hydrochloride” value was 10%.

“5γ-deoxy-5γ-[N-(2-dimethylaminoethyl)acetamido]pristinamycin IA [product L]”: the “Solubility: concentration … of hydrochloride” value is on record as 10%.

On to “5γ-deoxy-5γ-methylaminopristinamycin IA [Reference Example 9]”, for which the “Solubility: concentration … of hydrochloride” value was 1%.

As for `CC1=CC(O)CC(=O)Cc2nc(co2)C(=O)N2CCC([S+]([O-])CC(Cc3ccccc3)N(C)C)C2C(=O)OC(C(C)C)C(C)C=CC(=O)NCC=C1` [Example 11, 26-[(2S)-2-dimethylamino-3-phenylpropyl]sulphinylpristinamycin IIB], the “Solubility: concentration … of hydrochloride” value was found to be 1%.

For the compound “5γ-deoxy-5γ-[N-(2-dimethylaminoethyl)-N-methylamino]pristinamy cin IA [product D]”, the “Solubility: concentration … of hydrochloride” value was 10%.

For `CCC1NC(=O)C(NC(=O)c2ncccc2O)C(C)OC(=O)C(c2ccccc2)NC(=O)C2CC(=O)C(CSCCCN3CCN(C)CC3)CN2C(=O)C(Cc2ccc(N(C)C)cc2)N(C)C(=O)C2CCCN2C1=O` (centres unmarked) [product AD, 5δ-[3-(4-methyl-1-piperazinyl)propyl]thiomethylpristinamycin IA] ({Picolinoyl(3-OH)}-T[Abu]P[ξNMePhe(4-NMe2)][X5][Phg]; ester 1-C; configuration not given here), the “Solubility: concentration … of hydrochloride” value was 10%.

As for “5δ-(3-dimethylaminopropyl)thiomethylpristinamycin IA [product AA]”, the “Solubility: concentration … of hydrochloride” value came to 10%.

In the case of “5δ-[2-(4-methyl-1-piperazinyl)ethyl]thiomethylpristinamycin IA [product AC]”, the “Solubility: concentration … of hydrochloride” value is listed as 5%.

As for `CCC1NC(=O)C(NC(=O)c2ncccc2O)C(C)OC(=O)C(c2ccccc2)NC(=O)C2CC(=O)C(CSCCCN(C)C)CN2C(=O)C(Cc2ccccc2)N(C)C(=O)C2CCCN2C1=O` (centres unmarked) [product AB, 5δ-(3-dimethylaminopropyl)thiomethylvirginiamycin S] ({Picolinoyl(3-OH)}-T[Abu]P[NMeF][X7][Phg]; ester 1-C; configuration not given here), the “Solubility: concentration … of hydrochloride” value amounted to 10%.

Turning to “5γ-deoxy-(3-dimethylaminopropyl)-5γ-amino-pristinamycin IA [product A]”, the “Solubility: concentration … of hydrochloride” value turned out to be 10%.

In the case of “5δ-(2-diethylaminoethyl)thiomethylpristinamycin IA [product AF1]”, the “Solubility: concentration … of hydrochloride” value came out at 5%.

`CCC1NC(=O)C(NC(=O)c2ncccc2O)C(C)OC(=O)C(c2ccccc2)NC(=O)C2CC(=O)C(=COCCN(C)C)CN2C(=O)C(Cc2ccc(N(C)C)cc2)N(C)C(=O)C2CCCN2C1=O` (centres unmarked) [product AAQ, 5δ-(2-dimethylaminoethoxymethylene)pristinamycin IA] ({Picolinoyl(3-OH)}-T[Abu]P[ξNMePhe(4-NMe2)][X1][Phg]; ester 1-C; configuration not given here): the “Solubility: concentration … of hydrochloride” value is reported as 1%.

With `CC1=CC(O)CC(=O)Cc2nc(co2)C(=O)N2CCC([S+]([O-])CCN(C)C)C2C(=O)OC(C(C)C)C(C)C=CC(=O)NCC=C1` (centres unmarked) [Example 4, 26-(2-dimethylaminoethyl)sulphinylpristinamycin IIB], the “Solubility: concentration … of hydrochloride” value is recorded as 3.7%.

Turning to `CCC1NC(=O)C(NC(=O)c2ncccc2O)C(C)OC(=O)C(c2ccccc2)NC(=O)C2CC(=O)C(CSC(CN(C)C)CN(C)C)CN2C(=O)C(Cc2ccc(N(C)C)cc2)N(C)C(=O)C2CCCN2C1=O` (centres unmarked) [product AE, 5δ-[1,3-bis(dimethylamino)-2-propyl]thiomethylpristinamycin IA] ({Picolinoyl(3-OH)}-T[Abu]P[ξNMePhe(4-NMe2)][X4][Phg]; ester 1-C; configuration not given here), the “Solubility: concentration … of hydrochloride” value stood at 7.5%.

With `CCCCCCCCCCNCC[S+]([O-])C1CCN2C(=O)c3coc(n3)CC(=O)CC(O)C=C(C)C=CCNC(=O)C=CC(C)C(C(C)C)OC(=O)C12` (centres unmarked) [Example 18, 26-(2-decylaminoethyl)sulphinylpristinamycin IIB], the “Solubility: concentration … of hydrochloride” value is listed as 1%.
